Type in all cases: cell-based
For one data set, the system named is THLE2 cells. As to the kind of experiment: MTT cell viability assay, THLE2 cells, 72 h. The note with it: immortalized normal hepatocytes THLE2, 72 hours, 0.016-50.0 μM tested. The source says:
(§1) Huh-7 cells and derived from hepatocellular carcinoma cells, and were donated by Dr. Xuanyong Lu, (Drexel University College of Medicine, Doylestown, Pa.). THLE-2 were purchased from American Type Culture Collection (Manassas, Va.). PH5CH were donated by Dr. Masayuki Noguchi (University of Tsukuba, Ibaraki, Japan). THLE-2 and PH5CH have been immortalized through stable transfection of the SV40 large T antigen in normal hepatocytes, and are thus cell lines that are representative of normal hepatocytes rather than HCC cells. […] All cell lines were cultured and maintained in 5% CO2 at 37° C. Huh-7 were maintained in the culture media DMEM/F12 (Dulbecco's Modified Eagle Medium) with 10% Fetal bovine serum (FBS), 100 μg/mL penicillin, 100 units/mL streptomycin, and 50 μg/mL normocin. THLE-2 and PH5CH were maintained in the culture media Brochial Epithelial Growth Media (BEGM) with 10% FBS, 100 μg/mL penicillin, 100 units/mL streptomycin, with the following additives form the prepackaged kit: Bovine pituitary extract (BPE), insulin, hydrocortisone, retinoic acid, transferrin, triiodothyronine, supplemented with 5 ng/ml human epidermal growth factor and 70 ng/ml phosphoethanolamine (Lonza Walkersville Inc., Walkersville, Md.).
(§2) Huh7 cells were plated on 96-well plates at 2.0×10^4 cells per well to permit grow in the presence of compounds of the disclosure. Compounds of the disclosure were prediluted and transferred to cell plates by automated liquid handling. Cells were incubated with compounds of the disclosure for 72 hours, after which culture growth and viability were assessed by addition of 50 μg/mL 3-(4,5-Dimethyl-2-thiazolyl)-2,5-diphenyl-2H-tetrazolium bromide (MTT) incubation for 4 hours at 37° C. Solubilization buffer (0.01M HCl, 10% SDS) was added followed by incubation at 37° C. overnight. Absorbance was measured at 570 nm (reference 630 nm). Compound of the disclosure were tested in Huh7, THLE-2 and PH5CH, over eight-point dilutions in half-log steps, testing 50.0, 16.6, 5.0, 1.66, 0.5, 0.166, 0.05, and 0.016 μM in 0.5% DMSO, with each concentration in duplicate wells. […] Each compound was tested from 2 to 7 times in separate assay trials.
(§3) Selectivity of toxicity in HCC-derived cells over normal liver-derived cells is important for the purposes of developing a therapy that specifically targets the cancer with low toxicity for […]. The Selective Index (SI) is the ratio of CC50 in normal cells (THLE2 or PH5CH) over the CC50 in the liver cancer derived cells; thus, the higher the number, the lower the potential toxicity at an efficacious dose.

For a further data set, the system named is PH5CH cells. In words: MTT cell viability assay, PH5CH cells, 72 h. The note with it: immortalized normal hepatocytes PH5CH, 0.016-50.0 μM tested.
Source text: (§4) Huh-7 cells and derived from hepatocellular carcinoma cells, and were donated by Dr. Xuanyong Lu, (Drexel University College of Medicine, Doylestown, Pa.). THLE-2 were purchased from American Type Culture Collection (Manassas, Va.). PH5CH were donated by Dr. Masayuki Noguchi (University of Tsukuba, Ibaraki, Japan). THLE-2 and PH5CH have been immortalized through stable transfection of the SV40 large T antigen in normal hepatocytes, and are thus cell lines that are representative of normal hepatocytes rather than HCC cells. THLE2 have been confirmed to not form tumors in athymic mice. All cell lines were cultured and maintained in 5% CO2 at 37° C. Huh-7 were maintained in the culture media DMEM/F12 (Dulbecco's Modified Eagle Medium) with 10% Fetal bovine serum (FBS), 100 μg/mL penicillin, 100 units/mL streptomycin, and 50 μg/mL normocin. THLE-2 and PH5CH were maintained in the culture media Brochial Epithelial Growth Media (BEGM) with 10% FBS, 100 μg/mL penicillin, 100 units/mL streptomycin, with the following additives form the prepackaged kit: Bovine pituitary extract (BPE), insulin, hydrocortisone, retinoic acid, transferrin, triiodothyronine, supplemented with 5 ng/ml human epidermal growth factor and 70 ng/ml phosphoethanolamine (Lonza Walkersville Inc., Walkersville, Md.).
as §2, §3
On the technique in general: Formazan colour is commonly taken as a measure of viable cells.

The test system of a further data set is Huh7 cells. As to the kind of experiment: MTT cell viability assay, Huh7 cells, 72 h. To be noted: hepatocellular carcinoma derived Huh7 cells, 72 hours, MTT, 0.016-50.0 μM tested, read-out: Huh7 CC50.
Source text: as §4, §2

A short description of data set [1]: MTT cell viability assay, THLE2 cells, 72 h. To be noted: human, immortalized normal hepatocytes THLE2, 72 hours, 0.016-50.0 μM tested.
Source text: as §1, §2, §3

A short description of data set [2]: MTT cell viability assay, PH5CH cells, 72 h. To be noted: human, immortalized normal hepatocytes PH5CH, 0.016-50.0 μM tested.
Source text: as §4, §2, §3

SMILES strings stand for the structures. Where two headings read alike, the source gives them in different places.

In general, CC50 refers to the concentration giving 50% cytotoxicity.

As for `N#Cc1sc(Nc2ncccn2)nc1-c1ccccn1` [Entry 29], the CC50 with THLE2 cells was not below 50 µM; with PH5CH cells it was not below 50 µM; in the data set with Huh7 cells, not above 0.016 µM.

Take `CCCC(=O)OCc1sc(Nc2ncccn2)nc1-c1ccccn1` [Entry 43]: the CC50 at 72 h in data set [1] and in data set [2] was not below 50 µM each time. In addition, the CC50 with Huh7 cells (Homo sapiens, Huh-7) is 11 µM.

With `CNC(=O)c1sc(Nc2ncccn2)nc1-c1ccccn1` [Entry 39], the CC50 at 72 h amounted to 10.3 µM in data set [1] and 2.89 µM in data set [2]. Besides, the CC50 in the data set with Huh7 cells (Homo sapiens, Huh-7) worked out at 13 µM.

The record behind these values is US10087173B2, “Substituted aminothiazoles as inhibitors of cancers, including hepatocellular carcinoma, and as inhibitors of hepatitis virus replication” (BARUCH S. BLUMBERG INSTITUTE, priority 2011, dated 2018).
